Results reported in article PMC12679602 (RSC Advances, 2025).
“Also recorded” adds a separate entry of the source.

Columns and labels:
[1] = tested on: SARS-CoV-2 Delta variant (B.1.617.2); format: cell-based
[2] = tested on: SARS-CoV-2 Delta variant (B.1.617.2); assay: Virucidal assay against SARS-CoV-2; format: cell-based; details: for virucidal activity against SARS-CoV-2: in words

Structure (SMILES)	antiviral activity toward SARS-CoV-2 [1]	virucidal activity against SARS-CoV-2 [2]	also measured
C[C@H](CCC(=O)O)[C@H]1CC[C@H]2[C@@H]3[C@H](O)C[C@@H]4C[C@H](O)CC[C@]4(C)[C@H]3CC[C@]12C [CDCA (13), chenodeoxycholic acid]	did not exhibit antiviral activity; also recorded: did not exhibit antiviral or virucidal activity	did not exhibit antiviral or virucidal activity	virucidal activity against SARS-CoV-2 [2]; 13: did not show activity
C[C@H](CCC(=O)O)[C@H]1CC[C@H]2[C@@H]3CC[C@@H]4C[C@H](O)CC[C@]4(C)[C@H]3C[C@H](O)[C@]12C [DCA (5), deoxycholic acid]	did not exhibit antiviral activity; also recorded: did not exhibit antiviral or virucidal activity	did not exhibit antiviral or virucidal activity	virucidal activity against SARS-CoV-2 ([2]; listed as DCA, 5): did not show activity
C[C@H](CCC(=O)O)[C@H]1CC[C@H]2[C@@H]3[C@@H](O)C[C@@H]4C[C@H](O)CC[C@]4(C)[C@H]3CC[C@]12C [UDCA (9), ursodeoxycholic acid]	did not exhibit antiviral activity; also recorded: did not exhibit antiviral or virucidal activity	did not exhibit antiviral or virucidal activity	virucidal activity against SARS-CoV-2 [2]; 9: did not show activity
C[C@H](CCC(=O)O)[C@H]1CC[C@H]2[C@@H]3CC[C@@H]4C[C@H](O)CC[C@]4(C)[C@H]3CC[C@]12C [LCA (1), lithocholic acid]	did not exhibit antiviral activity		SI (selectivity index) ([2]; SI = CC50/EC50, virucidal assay): >5.16
C[C@H](CCC(=O)[O-])[C@H]1CC[C@H]2[C@@H]3CC[C@@H]4C[C@H](O)CC[C@]4(C)[C@H]3CC[C@]12C.C[N+](C)(C)CCO [[LCA][Z] (4)]			virucidal activity, times lower than the free acid LCA (1) ([2]; ratio of EC50 values): 3.27 times
